The source made the active and inactive calls. The rule behind the calls is not given here.
Test system: CCRIS mutagenicity, Ames/micronucleus/aberration tests
Experiment: CCRIS mutagenicity studies
[1] = Test System: AMES SALMONELLA TYPHIMURIUM, Strain/Indicator: TA98, Metabolic Activation: NONE, Method: PREINCUBATION
[2] = Test System: AMES SALMONELLA TYPHIMURIUM, Strain/Indicator: TA100, Metabolic Activation: NONE, Method: PREINCUBATION
[3] = Test System: AMES SALMONELLA TYPHIMURIUM, Strain/Indicator: TA98, Metabolic Activation: NONE, Method: STANDARD PLATE
[4] = Test System: AMES SALMONELLA TYPHIMURIUM, Strain/Indicator: TA98, Metabolic Activation: RAT LIVER S-9, AROCLOR 1254, Method: STANDARD PLATE
[5] = Test System: AMES SALMONELLA TYPHIMURIUM, Strain/Indicator: TA100, Metabolic Activation: NONE, Method: STANDARD PLATE
[6] = Test System: AMES SALMONELLA TYPHIMURIUM, Strain/Indicator: TA100, Metabolic Activation: RAT LIVER S-9, AROCLOR 1254, Method: STANDARD PLATE

c1ccc2c(c1)-c1c(ccc3ccccc13)[C@H]1N[C@@H]21
mutagenic call (Test System: AMES SALMONELLA TYPHIMURIUM, Strain/Indicator: TA98, Metabolic Activation: NONE, Method: PREINCUBATION (KCL-CONTAINING MEDIUM)): active; positive | mutagenic call (Test System: AMES SALMONELLA TYPHIMURIUM, Strain/Indicator: TA98, Metabolic Activation: NONE, Method: PREINCUBATION (KCL-FREE MEDIUM)): active; positive | mutagenic call (Test System: AMES SALMONELLA TYPHIMURIUM, Strain/Indicator: TA100, Metabolic Activation: NONE, Method: PREINCUBATION (KCL-CONTAINING MEDIUM)): active; positive | mutagenic call (Test System: AMES SALMONELLA TYPHIMURIUM, Strain/Indicator: TA100, Metabolic Activation: NONE, Method: PREINCUBATION (KCL-FREE MEDIUM)): active; positive

O=C(O)C(F)(F)C(F)(Cl)C(F)(F)C(F)(Cl)C(F)(F)Cl (stereo unspecified)
mutagenic call [1]: inactive; negative | mutagenic call (Test System: AMES SALMONELLA TYPHIMURIUM, Strain/Indicator: TA98, Metabolic Activation: RAT, LIVER, S-9, Method: PREINCUBATION): inactive; negative | mutagenic call [2]: inactive; negative | mutagenic call (Test System: AMES SALMONELLA TYPHIMURIUM, Strain/Indicator: TA100, Metabolic Activation: RAT, LIVER, S-9, Method: PREINCUBATION): inactive; negative | mutagenic call (Test System: AMES SALMONELLA TYPHIMURIUM, Strain/Indicator: TA1535, Metabolic Activation: NONE, Method: PREINCUBATION): inactive; negative | mutagenic call (Test System: AMES SALMONELLA TYPHIMURIUM, Strain/Indicator: TA1535, Metabolic Activation: RAT, LIVER, S-9, Method: PREINCUBATION): inactive; negative | mutagenic call (Test System: AMES SALMONELLA TYPHIMURIUM, Strain/Indicator: TA1537, Metabolic Activation: NONE, Method: PREINCUBATION): inactive; negative | mutagenic call (Test System: AMES SALMONELLA TYPHIMURIUM, Strain/Indicator: TA1537, Metabolic Activation: RAT, LIVER, S-9, Method: PREINCUBATION): inactive; negative | mutagenic call (Test System: AMES SALMONELLA TYPHIMURIUM, Strain/Indicator: TA1538, Metabolic Activation: NONE, Method: PREINCUBATION): inactive; negative | mutagenic call (Test System: AMES SALMONELLA TYPHIMURIUM, Strain/Indicator: TA1538, Metabolic Activation: RAT, LIVER, S-9, Method: PREINCUBATION): inactive; negative | mutagenic call (Test System: CHINESE HAMSTER OVARY, Strain/Indicator: CHO-K1-BH4 (HGPRT), Metabolic Activation: NONE, Method: STANDARD PLATE): inactive; negative | mutagenic call (Test System: CHINESE HAMSTER OVARY, Strain/Indicator: CHO-K1-BH4 (HGPRT), Metabolic Activation: RAT, LIVER, S-9, Method: STANDARD PLATE): inactive; negative | mutagenic call (Test System: UDS RODENT HEPATOCYTES, Strain/Indicator: THY INCORP (NON-S-PHASE), Metabolic Activation: NONE, Method: AUTORADIOGRAPHY): inactive; negative

Cc1ccc2c(c1O)C(=O)c1ccccc1C2=O
mutagenic call [1]: inactive; negative | mutagenic call (Test System: AMES SALMONELLA TYPHIMURIUM, Strain/Indicator: TA98, Metabolic Activation: RAT, LIVER, S-9, PCB, Method: PREINCUBATION): active; positive | mutagenic call [2]: inactive; negative | mutagenic call (Test System: AMES SALMONELLA TYPHIMURIUM, Strain/Indicator: TA100, Metabolic Activation: RAT, LIVER, S-9, PCB, Method: PREINCUBATION): active; positive

CCCCCCOCCOCCO
mutagenic call [3]: inactive; negative | mutagenic call [4]: inactive; negative | mutagenic call [5]: inactive; negative | mutagenic call [6]: inactive; negative | mutagenic call (Test System: AMES SALMONELLA TYPHIMURIUM, Strain/Indicator: TA1535, Metabolic Activation: NONE, Method: STANDARD PLATE): inactive; negative | mutagenic call (Test System: AMES SALMONELLA TYPHIMURIUM, Strain/Indicator: TA1535, Metabolic Activation: RAT LIVER S-9, AROCLOR 1254, Method: STANDARD PLATE): inactive; negative | mutagenic call (Test System: AMES SALMONELLA TYPHIMURIUM, Strain/Indicator: TA1537, Metabolic Activation: NONE, Method: STANDARD PLATE): inactive; negative | mutagenic call (Test System: AMES SALMONELLA TYPHIMURIUM, Strain/Indicator: TA1537, Metabolic Activation: RAT LIVER S-9, AROCLOR 1254, Method: STANDARD PLATE): inactive; negative | mutagenic call (Test System: AMES SALMONELLA TYPHIMURIUM, Strain/Indicator: TA1538, Metabolic Activation: NONE, Method: STANDARD PLATE): inactive; negative | mutagenic call (Test System: AMES SALMONELLA TYPHIMURIUM, Strain/Indicator: TA1538, Metabolic Activation: RAT LIVER S-9, AROCLOR 1254, Method: STANDARD PLATE): inactive; negative | mutagenic call (Test System: CHINESE HAMSTER OVARY CELLS, Strain/Indicator: CHO-K1-BH4 CELLS (HPRT)/6-THIOGUANINE, Metabolic Activation: RAT LIVER S-9, AROCLOR 1254, Method: PREINCUBATION): active; positive

Nc1cc(S(=O)(=O)O)cc2cc(S(=O)(=O)O)c(N=Nc3ccccc3)c(O)c12
mutagenic call [3]: inactive; negative | mutagenic call [4]: inactive; negative | mutagenic call [5]: inactive; negative | mutagenic call [6]: inactive; negative

— PubChem BioAssay AID1259407 (Chemical Carcinogenesis Research Information System (CCRIS), 2018)
